Reference: the kinase profiling compilation of Christmann-Franck et al. (2016)
Blank lines part the entries; values can stand above or below the molecule they belong to.

Assays:
RIPK4 (human) = RIPK4 (human) (UniProt P57078); assay: KINOMEscan competition binding; conditions: compound 10.0 µM
PIM1 (human) [1] = biological target: PIM1 (human) (UniProt P11309); assay: KINOMEscan competition binding; conditions: compound 10.0 µM
STK24 (human) = STK24 (human) (UniProt Q9Y6E0); assay: KINOMEscan competition binding; conditions: compound 10.0 µM
MAPKAPK5 (human) = MAPKAPK5 (human) (UniProt Q8IW41); assay: KINOMEscan competition binding; conditions: compound 10.0 µM
GSK3A (human) = GSK3A (human) (UniProt P49840); assay: KINOMEscan competition binding; conditions: compound 10.0 µM
MAP3K7 (human) = MAP3K7 (human) (UniProt O43318); assay: KINOMEscan competition binding; conditions: compound 10.0 µM
CSNK2A2 (human) = CSNK2A2 (human) (UniProt P19784); assay: KINOMEscan competition binding; conditions: compound 10.0 µM
DAPK2 (human) = DAPK2 (human) (UniProt Q9UIK4); assay: KINOMEscan competition binding; conditions: compound 10.0 µM
TGFBR2 (human) = TGFBR2 (human) (UniProt P37173); assay: KINOMEscan competition binding; conditions: compound 10.0 µM
MAP2K3 (human) = MAP2K3 (human) (UniProt P46734); assay: KINOMEscan competition binding; conditions: compound 10.0 µM
[2] = biological target: TYK2 JH2 pseudokinase (human) (UniProt P29597); assay: KINOMEscan competition binding; conditions: compound 10.0 µM
MAP4K2 (human) = MAP4K2 (human) (UniProt Q12851); assay: KINOMEscan competition binding; conditions: compound 10.0 µM
DAPK1 (human) = DAPK1 (human) (UniProt P53355); assay: KINOMEscan competition binding; conditions: compound 10.0 µM
CDK16 (human) = CDK16 (human) (UniProt Q00536); assay: KINOMEscan competition binding; conditions: compound 10.0 µM
PIM2 (human) [3] = biological target: PIM2 (human) (UniProt Q9P1W9); assay: KINOMEscan competition binding; conditions: compound 10.0 µM
[4] = biological target: JAK1 JH2 pseudokinase (human) (UniProt P23458); assay: KINOMEscan competition binding; conditions: compound 10.0 µM
PIM3 (human) = PIM3 (human) (UniProt Q86V86); assay: KINOMEscan competition binding; conditions: compound 10.0 µM
RPS6KA1 KD2 (human) = RPS6KA1 KD2 (human) (UniProt Q15418); assay: KINOMEscan competition binding; conditions: compound 10.0 µM
DYRK1B (human) = DYRK1B (human) (UniProt Q9Y463); assay: KINOMEscan competition binding; conditions: compound 10.0 µM
CSNK1E (human) = CSNK1E (human) (UniProt P49674); assay: KINOMEscan competition binding; conditions: compound 10.0 µM
TLK1 (human) = TLK1 (human) (UniProt Q9UKI8); assay: KINOMEscan competition binding; conditions: compound 10.0 µM
STK17A (human) = STK17A (human) (UniProt Q9UEE5); assay: KINOMEscan competition binding; conditions: compound 10.0 µM
RPS6KA6 KD2 (human) = RPS6KA6 KD2 (human) (UniProt Q9UK32); assay: KINOMEscan competition binding; conditions: compound 10.0 µM
ANKK1 (human) = ANKK1 (human) (UniProt Q8NFD2); assay: KINOMEscan competition binding; conditions: compound 10.0 µM
STK17B (human) = STK17B (human) (UniProt O94768); assay: KINOMEscan competition binding; conditions: compound 10.0 µM
RPS6KA2 KD2 (human) = RPS6KA2 KD2 (human) (UniProt Q15349); assay: KINOMEscan competition binding; conditions: compound 10.0 µM
PLK4 (human) = PLK4 (human) (UniProt O00444); assay: KINOMEscan competition binding; conditions: compound 10.0 µM
HIPK1 (human) = HIPK1 (human) (UniProt Q86Z02); assay: KINOMEscan competition binding; conditions: compound 10.0 µM
GSK3B (human) = GSK3B (human) (UniProt P49841); assay: KINOMEscan competition binding; conditions: compound 10.0 µM
ACVR2B (human) = ACVR2B (human) (UniProt Q13705); assay: KINOMEscan competition binding; conditions: compound 10.0 µM
PIM1 (human) [5] = biological target: PIM1 (human) (UniProt P11309); assay: SelectScreen, TR FRET
PIM2 (human) [6] = biological target: PIM2 (human) (UniProt Q9P1W9); assay: SelectScreen, TR FRET
PLK1 (human) = PLK1 (human) (UniProt P53350); assay: KINOMEscan competition binding; conditions: compound 10.0 µM
CAMKK2 (human) = CAMKK2 (human) (UniProt Q96RR4); assay: KINOMEscan competition binding; conditions: compound 10.0 µM
PLK3 (human) = PLK3 (human) (UniProt Q9H4B4); assay: KINOMEscan competition binding; conditions: compound 10.0 µM
DAPK3 (human) = DAPK3 (human) (UniProt O43293); assay: KINOMEscan competition binding; conditions: compound 10.0 µM
MYLK (human) = MYLK (human) (UniProt Q15746); assay: KINOMEscan competition binding; conditions: compound 10.0 µM
GAK (human) = GAK (human) (UniProt O14976); assay: KINOMEscan competition binding; conditions: compound 10.0 µM
MAPK7 (human) = MAPK7 (human) (UniProt Q13164); assay: KINOMEscan competition binding; conditions: compound 10.0 µM
PRKD1 (human) = PRKD1 (human) (UniProt Q15139); assay: KINOMEscan competition binding; conditions: compound 10.0 µM
CAMK2A (human) = CAMK2A (human) (UniProt Q9UQM7); assay: KINOMEscan competition binding; conditions: compound 10.0 µM
ALK (human) = ALK (human) (UniProt Q9UM73); assay: KINOMEscan competition binding; conditions: compound 10.0 µM
MINK1 (human) = MINK1 (human) (UniProt Q8N4C8); assay: KINOMEscan competition binding; conditions: compound 10.0 µM
DCLK2 (human) = DCLK2 (human) (UniProt Q8N568); assay: KINOMEscan competition binding; conditions: compound 10.0 µM
CAMKK1 (human) = CAMKK1 (human) (UniProt Q8N5S9); assay: KINOMEscan competition binding; conditions: compound 10.0 µM
CLK2 (human) = CLK2 (human) (UniProt P49760); assay: KINOMEscan competition binding; conditions: compound 10.0 µM
MET (human) = MET (human) (UniProt P08581); assay: KINOMEscan competition binding; conditions: compound 10.0 µM
SLK (human) = SLK (human) (UniProt Q9H2G2); assay: KINOMEscan competition binding; conditions: compound 10.0 µM
DCLK1 (human) = DCLK1 (human) (UniProt O15075); assay: KINOMEscan competition binding; conditions: compound 10.0 µM
TTK (human) [7] = biological target: TTK (human) (UniProt P33981); assay: KINOMEscan competition binding
TNK1 (human) = TNK1 (human) (UniProt Q13470); assay: KINOMEscan competition binding; conditions: compound 10.0 µM
STK33 (human) = STK33 (human) (UniProt Q9BYT3); assay: KINOMEscan competition binding; conditions: compound 10.0 µM
PTK2 (human) = PTK2 (human) (UniProt Q05397); assay: KINOMEscan competition binding; conditions: compound 10.0 µM
TTK (human) [8] = biological target: TTK (human) (UniProt P33981); assay: SelectScreen, TR FRET

Chain of TTK (human) (P33981 whole entry, looked up): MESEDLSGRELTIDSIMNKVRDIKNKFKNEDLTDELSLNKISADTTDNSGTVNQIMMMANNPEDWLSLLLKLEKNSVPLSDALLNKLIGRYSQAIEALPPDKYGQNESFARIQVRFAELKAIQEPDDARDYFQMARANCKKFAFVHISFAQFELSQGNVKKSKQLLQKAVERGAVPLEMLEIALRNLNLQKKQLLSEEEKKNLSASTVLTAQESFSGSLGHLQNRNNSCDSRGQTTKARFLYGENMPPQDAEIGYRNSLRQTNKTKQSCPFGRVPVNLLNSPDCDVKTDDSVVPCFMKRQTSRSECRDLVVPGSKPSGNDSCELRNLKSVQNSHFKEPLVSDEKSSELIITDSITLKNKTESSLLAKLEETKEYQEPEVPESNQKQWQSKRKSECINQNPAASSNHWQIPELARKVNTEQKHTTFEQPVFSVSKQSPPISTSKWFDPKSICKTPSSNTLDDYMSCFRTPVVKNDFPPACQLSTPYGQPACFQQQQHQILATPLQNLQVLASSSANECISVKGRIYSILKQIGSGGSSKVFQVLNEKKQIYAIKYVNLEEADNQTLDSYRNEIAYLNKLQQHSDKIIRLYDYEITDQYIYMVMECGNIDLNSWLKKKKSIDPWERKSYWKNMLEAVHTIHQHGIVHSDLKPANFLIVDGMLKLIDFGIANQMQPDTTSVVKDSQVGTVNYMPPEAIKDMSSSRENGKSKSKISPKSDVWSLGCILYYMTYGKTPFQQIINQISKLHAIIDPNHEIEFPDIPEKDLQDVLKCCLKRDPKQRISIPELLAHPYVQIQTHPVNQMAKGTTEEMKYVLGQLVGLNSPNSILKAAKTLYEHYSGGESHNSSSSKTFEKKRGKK
Chain of PIM2 (human) (Q9P1W9 whole entry, looked up): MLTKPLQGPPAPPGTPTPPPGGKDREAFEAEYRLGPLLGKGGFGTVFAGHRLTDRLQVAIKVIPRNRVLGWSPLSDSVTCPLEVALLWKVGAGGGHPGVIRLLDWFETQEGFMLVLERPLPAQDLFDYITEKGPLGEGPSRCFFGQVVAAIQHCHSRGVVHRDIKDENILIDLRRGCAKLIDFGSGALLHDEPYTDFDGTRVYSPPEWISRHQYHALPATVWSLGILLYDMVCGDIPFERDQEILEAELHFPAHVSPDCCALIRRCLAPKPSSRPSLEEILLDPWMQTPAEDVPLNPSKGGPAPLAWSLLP
Chain of DAPK1 (human) (P53355 whole entry, looked up): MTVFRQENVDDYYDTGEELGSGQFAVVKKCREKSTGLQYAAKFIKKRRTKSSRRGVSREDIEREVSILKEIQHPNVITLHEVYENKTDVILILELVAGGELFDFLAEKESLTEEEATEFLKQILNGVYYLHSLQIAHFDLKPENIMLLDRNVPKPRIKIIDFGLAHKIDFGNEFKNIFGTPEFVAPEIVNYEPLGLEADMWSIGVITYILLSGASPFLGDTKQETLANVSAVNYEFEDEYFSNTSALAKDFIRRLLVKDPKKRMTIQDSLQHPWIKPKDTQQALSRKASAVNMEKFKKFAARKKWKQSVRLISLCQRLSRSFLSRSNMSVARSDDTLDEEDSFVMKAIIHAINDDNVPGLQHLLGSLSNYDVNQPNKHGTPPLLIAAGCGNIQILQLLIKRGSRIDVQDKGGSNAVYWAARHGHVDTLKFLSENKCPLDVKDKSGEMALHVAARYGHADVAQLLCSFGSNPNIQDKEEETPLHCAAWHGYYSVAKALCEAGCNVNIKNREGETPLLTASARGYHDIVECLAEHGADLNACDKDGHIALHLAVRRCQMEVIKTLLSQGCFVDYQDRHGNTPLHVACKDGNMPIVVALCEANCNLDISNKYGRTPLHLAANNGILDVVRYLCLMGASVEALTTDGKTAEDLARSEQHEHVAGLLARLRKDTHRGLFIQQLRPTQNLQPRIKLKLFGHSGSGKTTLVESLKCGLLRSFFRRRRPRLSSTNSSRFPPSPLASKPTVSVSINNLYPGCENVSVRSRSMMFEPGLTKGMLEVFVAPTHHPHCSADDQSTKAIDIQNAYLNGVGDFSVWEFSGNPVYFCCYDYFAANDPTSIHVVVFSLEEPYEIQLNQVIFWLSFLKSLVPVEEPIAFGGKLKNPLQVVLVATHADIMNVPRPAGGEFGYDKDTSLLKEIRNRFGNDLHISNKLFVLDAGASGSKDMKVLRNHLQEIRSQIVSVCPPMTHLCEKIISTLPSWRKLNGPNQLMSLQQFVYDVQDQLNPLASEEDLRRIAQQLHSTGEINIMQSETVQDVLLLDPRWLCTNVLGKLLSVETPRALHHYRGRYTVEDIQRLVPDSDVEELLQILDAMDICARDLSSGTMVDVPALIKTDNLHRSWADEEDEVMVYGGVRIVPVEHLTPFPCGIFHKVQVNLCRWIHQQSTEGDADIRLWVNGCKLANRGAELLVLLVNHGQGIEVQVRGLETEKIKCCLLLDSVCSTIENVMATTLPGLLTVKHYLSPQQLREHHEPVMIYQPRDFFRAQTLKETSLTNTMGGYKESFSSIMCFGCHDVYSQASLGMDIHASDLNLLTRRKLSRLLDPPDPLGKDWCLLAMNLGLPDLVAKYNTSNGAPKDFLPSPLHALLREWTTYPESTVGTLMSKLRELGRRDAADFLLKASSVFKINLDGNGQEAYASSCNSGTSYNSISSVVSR
Chain of PIM1 (human) (P11309 whole entry, looked up): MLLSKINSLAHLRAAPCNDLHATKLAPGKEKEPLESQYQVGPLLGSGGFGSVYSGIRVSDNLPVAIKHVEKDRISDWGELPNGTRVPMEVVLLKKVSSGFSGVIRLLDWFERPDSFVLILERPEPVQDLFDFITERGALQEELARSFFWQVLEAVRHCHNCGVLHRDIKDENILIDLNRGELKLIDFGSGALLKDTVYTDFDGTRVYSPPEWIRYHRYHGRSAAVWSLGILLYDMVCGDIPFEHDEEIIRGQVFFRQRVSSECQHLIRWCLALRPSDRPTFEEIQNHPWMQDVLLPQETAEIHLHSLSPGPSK
Chain of RPS6KA2 KD2 (human) (Q15349 whole entry, looked up): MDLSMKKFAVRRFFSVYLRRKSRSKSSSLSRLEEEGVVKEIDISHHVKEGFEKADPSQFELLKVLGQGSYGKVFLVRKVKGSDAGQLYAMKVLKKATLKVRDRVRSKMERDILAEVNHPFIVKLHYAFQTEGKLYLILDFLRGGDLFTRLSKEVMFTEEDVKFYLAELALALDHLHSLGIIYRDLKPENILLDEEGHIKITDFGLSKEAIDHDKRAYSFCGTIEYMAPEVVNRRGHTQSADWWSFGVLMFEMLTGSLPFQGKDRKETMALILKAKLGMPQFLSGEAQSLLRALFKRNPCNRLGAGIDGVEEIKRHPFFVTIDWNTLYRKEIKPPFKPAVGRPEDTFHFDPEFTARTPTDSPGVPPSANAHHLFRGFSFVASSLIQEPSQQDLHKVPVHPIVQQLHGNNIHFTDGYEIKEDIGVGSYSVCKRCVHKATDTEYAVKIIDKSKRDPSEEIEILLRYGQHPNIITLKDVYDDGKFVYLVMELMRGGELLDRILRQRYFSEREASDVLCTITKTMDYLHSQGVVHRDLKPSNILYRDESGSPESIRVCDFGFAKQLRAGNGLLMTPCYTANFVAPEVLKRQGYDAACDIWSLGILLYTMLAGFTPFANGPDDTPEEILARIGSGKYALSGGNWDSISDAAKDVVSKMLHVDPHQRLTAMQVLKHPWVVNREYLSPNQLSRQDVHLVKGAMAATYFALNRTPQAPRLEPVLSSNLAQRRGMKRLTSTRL
Chain of PLK4 (human) (O00444 whole entry, looked up): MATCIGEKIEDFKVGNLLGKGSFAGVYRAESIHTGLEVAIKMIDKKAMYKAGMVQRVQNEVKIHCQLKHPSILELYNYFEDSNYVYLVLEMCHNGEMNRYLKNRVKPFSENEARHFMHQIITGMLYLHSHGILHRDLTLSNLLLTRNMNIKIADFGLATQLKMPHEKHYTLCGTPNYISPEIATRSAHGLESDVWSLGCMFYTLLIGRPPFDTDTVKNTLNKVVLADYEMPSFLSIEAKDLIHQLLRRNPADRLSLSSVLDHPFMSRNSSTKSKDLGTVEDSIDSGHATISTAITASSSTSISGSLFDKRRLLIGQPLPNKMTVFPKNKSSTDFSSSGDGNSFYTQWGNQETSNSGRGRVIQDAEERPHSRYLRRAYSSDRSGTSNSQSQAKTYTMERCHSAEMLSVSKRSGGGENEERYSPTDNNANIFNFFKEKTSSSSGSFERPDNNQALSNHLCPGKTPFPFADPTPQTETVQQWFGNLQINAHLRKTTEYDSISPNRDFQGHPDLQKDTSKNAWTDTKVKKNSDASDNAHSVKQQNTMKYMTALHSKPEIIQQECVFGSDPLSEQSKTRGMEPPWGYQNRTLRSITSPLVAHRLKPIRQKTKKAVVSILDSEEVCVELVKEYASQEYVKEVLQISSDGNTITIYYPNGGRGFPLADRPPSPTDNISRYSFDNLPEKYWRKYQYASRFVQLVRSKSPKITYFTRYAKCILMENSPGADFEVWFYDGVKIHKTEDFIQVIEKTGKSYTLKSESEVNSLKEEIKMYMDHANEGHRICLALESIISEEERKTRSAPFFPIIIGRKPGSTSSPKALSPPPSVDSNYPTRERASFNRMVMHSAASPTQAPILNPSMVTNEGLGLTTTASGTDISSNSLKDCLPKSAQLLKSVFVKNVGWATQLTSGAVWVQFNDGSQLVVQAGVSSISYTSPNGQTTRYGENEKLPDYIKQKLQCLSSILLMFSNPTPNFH
Chain of DAPK2 (human) (Q9UIK4 whole entry, looked up): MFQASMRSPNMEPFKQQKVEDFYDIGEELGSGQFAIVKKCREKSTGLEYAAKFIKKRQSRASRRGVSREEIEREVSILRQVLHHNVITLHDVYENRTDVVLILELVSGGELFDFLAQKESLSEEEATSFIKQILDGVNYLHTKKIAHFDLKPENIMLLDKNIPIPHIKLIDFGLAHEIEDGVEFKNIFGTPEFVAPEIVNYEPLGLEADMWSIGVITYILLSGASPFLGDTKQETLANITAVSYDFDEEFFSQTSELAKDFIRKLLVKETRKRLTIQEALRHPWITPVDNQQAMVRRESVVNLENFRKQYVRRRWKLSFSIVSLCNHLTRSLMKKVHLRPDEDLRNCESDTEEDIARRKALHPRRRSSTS

- kinase still bound, per cent of control (RIPK4 (human)): 1.3%
- kinase still bound, per cent of control (PIM1 (human) [1]): 6.4%
- kinase still bound, per cent of control (STK24 (human)): 23%
- kinase still bound, per cent of control (MAPKAPK5 (human)): 12%
- kinase still bound, per cent of control (GSK3A (human)): 18%
- kinase still bound, per cent of control (MAP3K7 (human)): 2.6%
- kinase still bound, per cent of control (CSNK2A2 (human)): 33%
- kinase still bound, per cent of control (DAPK2 (human)): 24%
- kinase still bound, per cent of control (TGFBR2 (human)): 5.7%
- kinase still bound, per cent of control (MAP2K3 (human)): 4.6%
- kinase still bound, per cent of control [2]: 8.8%
- kinase still bound, per cent of control (MAP4K2 (human)): 26%
- kinase still bound, per cent of control (DAPK1 (human)): 12%
- kinase still bound, per cent of control (CDK16 (human)): 24%
- kinase still bound, per cent of control (PIM2 (human) [3]): 0.65%
- kinase still bound, per cent of control [4]: 32%
- kinase still bound, per cent of control (PIM3 (human)): 8.2%
- kinase still bound, per cent of control (RPS6KA1 KD2 (human)): 17%
- kinase still bound, per cent of control (DYRK1B (human)): 10%
- kinase still bound, per cent of control (CSNK1E (human)): 15%
- kinase still bound, per cent of control (TLK1 (human)): 12%
- kinase still bound, per cent of control (STK17A (human)): 0.1%
- kinase still bound, per cent of control (RPS6KA6 KD2 (human)): 22%
- kinase still bound, per cent of control (ANKK1 (human)): 25%
- kinase still bound, per cent of control (STK17B (human)): 0.4%
- kinase still bound, per cent of control (RPS6KA2 KD2 (human)): 26%
- kinase still bound, per cent of control (PLK4 (human)): 3.8%
- kinase still bound, per cent of control (HIPK1 (human)): 0.25%
- kinase still bound, per cent of control (GSK3B (human)): 34%
- kinase still bound, per cent of control (ACVR2B (human)): 33%
- IC50 (PIM1 (human) [5]): 131 nM
- IC50 (PIM2 (human) [6]): 115 nM
SMILES: N=C1NC(=O)/C(=C/c2ccc(-c3ccc4c(C(=O)Nc5ccc(N6CCNCC6)cc5)cccc4c3)o2)S1

- kinase still bound, per cent of control (PLK1 (human)): 22%
- kinase still bound, per cent of control (CAMKK2 (human)): 7.6%
- kinase still bound, per cent of control (PLK3 (human)): 2.8%
- kinase still bound, per cent of control (DAPK3 (human)): 8.2%
- kinase still bound, per cent of control (MYLK (human)): 0.45%
- kinase still bound, per cent of control (DAPK2 (human)): 21%
- kinase still bound, per cent of control (GAK (human)): 3.2%
- kinase still bound, per cent of control (MAPK7 (human)): 9.6%
- kinase still bound, per cent of control (PRKD1 (human)): 34%
- kinase still bound, per cent of control (CAMK2A (human)): 20%
- kinase still bound, per cent of control (ALK (human)): 20%
- kinase still bound, per cent of control (MINK1 (human)): 33%
- kinase still bound, per cent of control (DCLK2 (human)): 1.8%
- kinase still bound, per cent of control (DAPK1 (human)): 7.2%
- kinase still bound, per cent of control (CAMKK1 (human)): 33%
- kinase still bound, per cent of control (CLK2 (human)): 15%
- kinase still bound, per cent of control (MET (human)): 20%
- kinase still bound, per cent of control (SLK (human)): 2%
- kinase still bound, per cent of control (DCLK1 (human)): 3.4%
- Kd (TTK (human) [7]): 3920 nM
- kinase still bound, per cent of control (TTK (human) [7]; compound 10.0 µM): 9.4%
- kinase still bound, per cent of control (TNK1 (human)): 24%
- kinase still bound, per cent of control (RPS6KA6 KD2 (human)): 32%
- kinase still bound, per cent of control (STK33 (human)): 7%
- kinase still bound, per cent of control (PTK2 (human)): 17%
- kinase still bound, per cent of control (RPS6KA2 KD2 (human)): 34%
- kinase still bound, per cent of control (PLK4 (human)): 16%
- IC50 (TTK (human) [8]): > 10000 nM
SMILES: COc1cc(C(=O)NC2CCN(C)CC2)ccc1Nc1ncc2c(n1)N(C1CCCC1)CC(C)C(=O)N2C (stereo not given)
